Test results as given in patent US7906486B2, “Method of treating or preventing tissue deterioration, injury or damage due to disease of mucosa” (SciClone Pharmaceuticals, Inc., priority 2007, dated 2011).
Where “and” joins values, the source holds several entries; their conditions need not be identical. Equal entries are not always repeated.

Columns and labels:
spleen lymphocytes = conditions: cited from earlier work
[1] = test system: oral mucositis induced by cis-platin 5 mg/kg and radiation 35 Gy (left cheek pouch); test: Oral mucositis induced by a combination of cisplatin and acute radiation in hamsters, mucositis scoring (Example 4, SCI-04); type: in vivo, Syrian Golden Hamsters; set-up: key: 0: Pouch completely healthy. No erythema or vasodilation.; 1: Light to severe erythema and vasodilation. No erosion of mucosa.; 2: Severe erythema and vasodilation. Erosion of superficial aspects of mucosa leaving denuded areas. Decreased stippling of mucosa.; 3: Formation of off-white ulcers in one or more places. Ulcers may have a yellow/gray due to pseudomembrane. Cumulative size of ulcers should equal about ¼ of the pouch. Severe erythema and vasodilation.; 4: Cumulative seize of ulcers should equal about ½ of the pouch. Loss of pliability. Severe erythema and vasodilation.; 5: Virtually all of pouch is ulcerated. Loss of pliability (pouch can only partially be extracted from mouth); conditions: Group 2 (SCV-07 10 μg/kg, day -1 to day 20), individual animal scores, two scores per animal
Experimental: Forty Golden Syrian hamsters were prospectively randomized into four equally sized groups. Mucositis was induced on the left cheek pouch mucosa of golden Syrian hamsters by a single dose of cis-platin at 5 mg/kg given on day −1, and a single dose of radiation administered on day 0 at a dose of 35Gy. Beginning on day −1 and continuing once daily until day 20, SCV-07 was given by sub-cutaneous injection at doses of 10 μg/kg, 100 μg/kg or 1 mg/kg in a volume of 100 μL. Animals' activity and weight were evaluated daily. Beginning on day 6 and continuing on alternate days for the duration of the study, oral mucositis was evaluated using a standard scoring six point scale. The number of days of ulcerative mucositis was evaluated using a Chi-squared test of scores of ≧3 throughout the study, and the individual daily group scores were assessed with a Rank Sum Test.
The chemo-radiation model of oral mucositis in hamsters, developed by the Principal Investigator, has proven to be an accurate, efficient and cost-effective technique to provide a preliminary evaluation of anti-mucositis compounds. In this model, hamsters received a single dose of cis-platin at 5 mg/kg on day −1, followed by a single dose of radiation of 35 Gy to the left cheek pouch on day 0, rather than the single dose of 40 Gy on day 0 that is used in acute radiation studies. The course of mucositis in this model is very similar to the acute radiation model and results in peak mucositis scores approximately 16-18 days following radiation.
Hamsters received a single dose of cis-platin at 5 mg/kg on day −1 by intra-peritoneal injection, followed by a single dose of radiation of 35 Gy to the left cheek pouch on day 0. This was accomplished by anesthetizing the animals and everting the left buccal pouch, while protecting the rest of the animal's bodies with a lead shield. Test materials were given by sub-cutaneous injection once daily as detailed in Table 13. Mucositis was evaluated clinically starting on day 6, and continuing on alternate days until day 28. Test articles were given as from day −1 to day 20.
The grade of mucositis was scored, beginning day 6, and for every second day thereafter, through and including day 28. The effect on mucositis of each drug treatment compared to placebo was assessed according to the following parameters:
On each evaluation day, the number of animals with a blinded mucositis score of ≧3 in each drug treatment group was compared to the control group. Differences were compared on a cumulative basis and statistical significance was determined by chi-square analysis. Efficacy, in this analysis, is defined by a significant reduction in the number of days that a group of animals had ulcerations (scores 3) when compared to the control group.
For each evaluation day the scores of the control group were compared to those of the treated groups using non-parametric rank sum analysis. Treatment success was considered as a statistically significant lowering of scores in the treated group on 2 or more days from day 6 to day 28.
Forty (40) male Syrian Golden Hamsters were given an intraperitoneal injection of 5 mg/kg Cisplatin on day −1. On day 0 all animals were given an acute radiation dose of 35 Gy directed to their left buccal cheek pouch. This was accomplished by anesthetizing the animals and everting the left buccal pouch, while protecting the rest of the animals with a lead shield. Test materials were given by subcutaneous injection once daily as detailed in Table 13. Mucositis was evaluated clinically starting on Day 6, and continued on alternate days until day 28.
In this study, mucositis was induced with a combination of Cis-platin and radiation. Cis-platin was given as a single injection (IP) of 5 mg/kg on day −1. Radiation was given as a single focal dose of 35 Gy on day 0. Radiation was generated with a Philips 160 kVp (kilovolt potential) (18.75-ma) X-ray source at a focal distance of 30 cm, with a 3.0 mm hardened Al filtration system. […]

Q: Which results are given for `N[C@H](CCC(=O)N[C@@H](Cc1c[nH]c2ccccc12)C(=O)O)C(=O)O` [SCV-07, γ-D-glutamyl-L-tryptophan]?
A: IL-2 receptor expression by spleen lymphocytes (spleen lymphocytes; Con-A-induced): increases; Con-A-induced interleukin-2 (IL-2) production (spleen lymphocytes; spleen lymphocytes): increases; Mucositis score, day 10 ([1]; day 10): 1; Mucositis score, day 12 ([1]; day 12): 3; Mucositis score, day 14 ([1]; day 14): 3; Mucositis score, day 16 ([1]; day 16): 3 (14×) and 4 (2×); Mucositis score, day 18 ([1]; day 18): 3 (12×) and 4 (2×); Mucositis score, day 20 ([1]; day 20): 3 (12×) and 1; Mucositis score, day 22 ([1]; day 22): 1 (4×) and 3 (8×); Mucositis score, day 24 ([1]; day 24): 1 (5×) and 3 (4×); Mucositis score, day 26 ([1]; day 26): 1 (11×) and 3 (4×); Mucositis score, day 28 ([1]; day 28): 0 (7×) and 1 (8×) and 3 (2×)
